From PMC7614683, “A small molecule PI3Kα activator for cardioprotection and neuroregeneration” (Nature, 2023)

Biological target: T1, full length p110α/p85α (Homo sapiens, UniProt P42336)
T1 construct: Full-length human p110α was expressed either in a complex with full-length human p85α (for HTS, biochemistry and HDX-MS); 6xHis tag followed by TEV protease site (N); host or cells: Spodoptera frugiperda Sf9, baculovirus
Assay: HDX-MS
Type: binding
Description: Sample preparation: HDX-MS experiments were carried out as described previously. […] In total, three biological replicates, i.e. three separate protein preparations, each with exchange experiments carried out in triplicate were conducted. Data presented in the manuscript is a single biological replicate. Data acquisition and analysis were as follows: Each sample was thawed and injected onto an M-Class Acquity UPLC with HDX Technology (Waters) kept at 0.1°C. Proteins were digested in-line using an Enzymate Pepsin Column (Waters, #186007233) at 15°C for 2 min at 200 μl/min. Peptic peptides were then eluted onto an Acquity UPLC BEH C18 Column (Waters, #186002346) equilibrated in Pepsin-A buffer (0.1% formic acid) and separated using a 5-35% gradient of Pepsin-B buffer (0.1% formic acid, 99% acetonitrile) over 7 min at a flowrate of 40 μl/min. Data were collected on a Waters Cyclic IMS, with an electrospray ionisation source, from 50-2000 m/z. Data were collected in the HDMS^E mode. A single pass of the cyclic IMS was conducted. A “blank” sample of protein dilution buffer with quench was run between samples, and carry-over of peptides was routinely monitored. Five replicates were used to identify non-deuterated peptides. Criteria used to include peptides in the HDX-MS dataset were: minimum intensity 5000, minimum sequence length 5, maximum sequence length 25, a minimum of 3 fragment ions, a minimum of 0.1 products per amino acid, a minimum score of 6.62, a maximum MH+ Error of 10 ppm, identification in at least two datasets with a retention time RSD of less than 10%. Data was analysed using Protein Lynx Global Server (Waters) and DynamX (Waters). All peptides were manually inspected for EX1 kinetics and sufficient quality of the peptide envelope. Data quality, experiment design, and reporting of data meets the criteria as determined by the HDX-MS community. Uptake files were created using Baryonyx. Data are available via ProteomeXchange with identifier PXD037721.

T1 sequence (P42336 whole entry): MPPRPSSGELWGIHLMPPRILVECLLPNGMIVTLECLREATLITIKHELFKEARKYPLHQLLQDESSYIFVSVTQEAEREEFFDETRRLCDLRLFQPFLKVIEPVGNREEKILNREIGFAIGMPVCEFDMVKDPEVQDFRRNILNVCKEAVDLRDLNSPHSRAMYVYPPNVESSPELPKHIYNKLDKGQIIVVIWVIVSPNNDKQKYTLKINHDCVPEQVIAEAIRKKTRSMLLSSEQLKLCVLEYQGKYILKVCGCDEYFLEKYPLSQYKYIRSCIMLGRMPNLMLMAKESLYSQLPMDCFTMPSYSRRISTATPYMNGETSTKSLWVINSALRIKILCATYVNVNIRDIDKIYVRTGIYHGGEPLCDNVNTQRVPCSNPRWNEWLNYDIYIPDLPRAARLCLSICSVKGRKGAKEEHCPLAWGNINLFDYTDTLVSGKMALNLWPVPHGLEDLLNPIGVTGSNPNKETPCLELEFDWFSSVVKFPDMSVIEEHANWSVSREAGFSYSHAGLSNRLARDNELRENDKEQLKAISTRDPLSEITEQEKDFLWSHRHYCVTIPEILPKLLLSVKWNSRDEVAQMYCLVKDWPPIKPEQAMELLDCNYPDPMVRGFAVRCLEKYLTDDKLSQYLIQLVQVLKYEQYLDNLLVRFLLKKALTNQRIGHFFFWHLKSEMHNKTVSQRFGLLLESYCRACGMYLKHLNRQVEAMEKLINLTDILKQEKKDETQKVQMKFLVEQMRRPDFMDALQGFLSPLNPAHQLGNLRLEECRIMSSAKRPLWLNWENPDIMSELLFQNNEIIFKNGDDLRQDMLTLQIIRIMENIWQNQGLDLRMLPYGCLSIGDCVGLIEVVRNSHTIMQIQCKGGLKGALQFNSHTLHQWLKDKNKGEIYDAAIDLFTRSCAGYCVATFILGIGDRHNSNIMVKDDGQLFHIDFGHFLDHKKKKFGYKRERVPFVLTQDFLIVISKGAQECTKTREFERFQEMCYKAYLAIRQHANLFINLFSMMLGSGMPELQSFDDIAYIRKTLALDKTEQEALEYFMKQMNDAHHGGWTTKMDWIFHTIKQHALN
T1 sequence (P27986 whole entry partner): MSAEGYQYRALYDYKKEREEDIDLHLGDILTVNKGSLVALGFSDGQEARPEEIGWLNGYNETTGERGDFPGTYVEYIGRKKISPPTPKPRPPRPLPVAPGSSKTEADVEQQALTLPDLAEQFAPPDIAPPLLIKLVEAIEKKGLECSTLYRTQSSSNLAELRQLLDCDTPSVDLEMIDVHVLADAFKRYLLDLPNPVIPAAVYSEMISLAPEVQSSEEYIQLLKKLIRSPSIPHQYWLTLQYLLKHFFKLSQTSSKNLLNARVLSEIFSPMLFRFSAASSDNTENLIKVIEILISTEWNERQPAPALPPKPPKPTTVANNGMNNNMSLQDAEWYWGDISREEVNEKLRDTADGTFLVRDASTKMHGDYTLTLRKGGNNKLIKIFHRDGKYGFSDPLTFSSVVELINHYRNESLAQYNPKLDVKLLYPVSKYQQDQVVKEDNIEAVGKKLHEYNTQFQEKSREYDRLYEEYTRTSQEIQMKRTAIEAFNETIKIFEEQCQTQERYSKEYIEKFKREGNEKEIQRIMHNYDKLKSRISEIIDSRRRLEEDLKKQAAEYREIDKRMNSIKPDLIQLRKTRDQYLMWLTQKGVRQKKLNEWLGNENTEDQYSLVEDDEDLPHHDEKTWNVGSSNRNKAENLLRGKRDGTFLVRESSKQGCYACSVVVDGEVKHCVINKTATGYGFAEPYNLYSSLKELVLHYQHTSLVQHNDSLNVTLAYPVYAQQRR

Compound: CCN1CCN(c2ccc(Nc3cc(Nc4cccc5c4N(C(C)=O)CC5)ccn3)cc2)CC1 [Compound 1938]
- HDX difference, percentage (PK3CA_HUMAN peptide 487-498, time column 5 of 5): -0.361%
- HDX difference, percentage (PK3CA_HUMAN peptide 496-507, time column 1 of 5, deuterium exchange time 0.005): -1.7%
- HDX difference, percentage (PK3CA_HUMAN peptide 496-507, time column 2 of 5, deuterium exchange time 0.05): 0.429%
- HDX difference, percentage (PK3CA_HUMAN peptide 496-507, time column 3 of 5, deuterium exchange time 0.5): 0.5%
- HDX difference, percentage (PK3CA_HUMAN peptide 496-507, time column 4 of 5, deuterium exchange time 5): 0.6%
- HDX difference, percentage (PK3CA_HUMAN peptide 496-507, time column 5 of 5): 0.121%
- HDX difference, percentage (PK3CA_HUMAN peptide 508-520, time column 1 of 5, deuterium exchange time 0.005): -0.644%
- HDX difference, percentage (PK3CA_HUMAN peptide 508-520, time column 2 of 5, deuterium exchange time 0.05): 1.9%
- HDX difference, percentage (PK3CA_HUMAN peptide 508-520, time column 3 of 5, deuterium exchange time 0.5): 1.4%
- HDX difference, percentage (PK3CA_HUMAN peptide 508-520, time column 4 of 5, deuterium exchange time 5): 1.5%
- HDX difference, percentage (PK3CA_HUMAN peptide 508-520, time column 5 of 5): 0.952%
- HDX difference, percentage (PK3CA_HUMAN peptide 538-549, time column 1 of 5, deuterium exchange time 0.005): -0.8%
- HDX difference, percentage (PK3CA_HUMAN peptide 538-549, time column 2 of 5, deuterium exchange time 0.05): 1.0%
- HDX difference, percentage (PK3CA_HUMAN peptide 538-549, time column 3 of 5, deuterium exchange time 0.5): 0.441%
- HDX difference, percentage (PK3CA_HUMAN peptide 538-549, time column 4 of 5, deuterium exchange time 5): -1.1%
- HDX difference, percentage (PK3CA_HUMAN peptide 538-549, time column 5 of 5): -0.257%
- HDX difference, percentage (PK3CA_HUMAN peptide 538-554, time column 1 of 5, deuterium exchange time 0.005): -1.3%
- HDX difference, percentage (PK3CA_HUMAN peptide 538-554, time column 2 of 5, deuterium exchange time 0.05): 0.7%
- HDX difference, percentage (PK3CA_HUMAN peptide 538-554, time column 3 of 5, deuterium exchange time 0.5): 0.47%
- HDX difference, percentage (PK3CA_HUMAN peptide 538-554, time column 4 of 5, deuterium exchange time 5): -1.1%
- HDX difference, percentage (PK3CA_HUMAN peptide 538-554, time column 5 of 5): -0.74%
- HDX difference, percentage (PK3CA_HUMAN peptide 555-570, time column 1 of 5, deuterium exchange time 0.005): -1.2%
- HDX difference, percentage (PK3CA_HUMAN peptide 555-570, time column 2 of 5, deuterium exchange time 0.05): 0.462%
- HDX difference, percentage (PK3CA_HUMAN peptide 555-570, time column 3 of 5, deuterium exchange time 0.5): 0.2%
- HDX difference, percentage (PK3CA_HUMAN peptide 555-570, time column 4 of 5, deuterium exchange time 5): -1.4%
- HDX difference, percentage (PK3CA_HUMAN peptide 555-570, time column 5 of 5): -2.6%
- HDX difference, percentage (PK3CA_HUMAN peptide 571-583, time column 1 of 5, deuterium exchange time 0.005): -0.6%
- HDX difference, percentage (PK3CA_HUMAN peptide 571-583, time column 2 of 5, deuterium exchange time 0.05): 0.4%
- HDX difference, percentage (PK3CA_HUMAN peptide 571-583, time column 3 of 5, deuterium exchange time 0.5): 0.167%
- HDX difference, percentage (PK3CA_HUMAN peptide 571-583, time column 4 of 5, deuterium exchange time 5): -0.378%
- HDX difference, percentage (PK3CA_HUMAN peptide 571-583, time column 5 of 5): -1.4%
- HDX difference, percentage (PK3CA_HUMAN peptide 582-596, time column 1 of 5, deuterium exchange time 0.005): -1.6%
- HDX difference, percentage (PK3CA_HUMAN peptide 582-596, time column 2 of 5, deuterium exchange time 0.05): 0.374%
- HDX difference, percentage (PK3CA_HUMAN peptide 582-596, time column 3 of 5, deuterium exchange time 0.5): 0.262%
- HDX difference, percentage (PK3CA_HUMAN peptide 582-596, time column 4 of 5, deuterium exchange time 5): 0.76%
- HDX difference, percentage (PK3CA_HUMAN peptide 582-596, time column 5 of 5): 0.0749%
- HDX difference, percentage (PK3CA_HUMAN peptide 597-606, time column 1 of 5, deuterium exchange time 0.005): 0.175%
- HDX difference, percentage (PK3CA_HUMAN peptide 597-606, time column 2 of 5, deuterium exchange time 0.05): 1.6%
- HDX difference, percentage (PK3CA_HUMAN peptide 597-606, time column 3 of 5, deuterium exchange time 0.5): 0.5%
- HDX difference, percentage (PK3CA_HUMAN peptide 597-606, time column 4 of 5, deuterium exchange time 5): 1.4%
- HDX difference, percentage (PK3CA_HUMAN peptide 597-606, time column 5 of 5): 1.3%
- HDX difference, percentage (PK3CA_HUMAN peptide 610-637, time column 1 of 5, deuterium exchange time 0.005): -0.237%
- HDX difference, percentage (PK3CA_HUMAN peptide 610-637, time column 2 of 5, deuterium exchange time 0.05): 0.13%
- HDX difference, percentage (PK3CA_HUMAN peptide 610-637, time column 3 of 5, deuterium exchange time 0.5): 0.2%
- HDX difference, percentage (PK3CA_HUMAN peptide 610-637, time column 4 of 5, deuterium exchange time 5): 0.257%
- HDX difference, percentage (PK3CA_HUMAN peptide 610-637, time column 5 of 5): 0.128%
- HDX difference, percentage (PK3CA_HUMAN peptide 626-638, time column 1 of 5, deuterium exchange time 0.005): -1.2%
- HDX difference, percentage (PK3CA_HUMAN peptide 626-638, time column 2 of 5, deuterium exchange time 0.05): 1.0%
- HDX difference, percentage (PK3CA_HUMAN peptide 626-638, time column 3 of 5, deuterium exchange time 0.5): 0.459%
- HDX difference, percentage (PK3CA_HUMAN peptide 626-638, time column 4 of 5, deuterium exchange time 5): -0.333%
- HDX difference, percentage (PK3CA_HUMAN peptide 626-638, time column 5 of 5): -0.147%
- HDX difference, percentage (PK3CA_HUMAN peptide 647-658, time column 1 of 5, deuterium exchange time 0.005): -0.361%
- HDX difference, percentage (PK3CA_HUMAN peptide 647-658, time column 2 of 5, deuterium exchange time 0.05): 0.6%
- HDX difference, percentage (PK3CA_HUMAN peptide 647-658, time column 3 of 5, deuterium exchange time 0.5): 1.0%
- HDX difference, percentage (PK3CA_HUMAN peptide 647-658, time column 4 of 5, deuterium exchange time 5): 1.2%
- HDX difference, percentage (PK3CA_HUMAN peptide 647-658, time column 5 of 5): -0.0483%
- HDX difference, percentage (PK3CA_HUMAN peptide 661-687, time column 1 of 5, deuterium exchange time 0.005): -1.5%
- HDX difference, percentage (PK3CA_HUMAN peptide 661-687, time column 2 of 5, deuterium exchange time 0.05): 0.4%
- HDX difference, percentage (PK3CA_HUMAN peptide 661-687, time column 3 of 5, deuterium exchange time 0.5): 0.466%
- HDX difference, percentage (PK3CA_HUMAN peptide 661-687, time column 4 of 5, deuterium exchange time 5): 0.23%
- HDX difference, percentage (PK3CA_HUMAN peptide 661-687, time column 5 of 5): -0.271%
- HDX difference, percentage (PK3CA_HUMAN peptide 688-693, time column 1 of 5, deuterium exchange time 0.005): -3.1%
- HDX difference, percentage (PK3CA_HUMAN peptide 688-693, time column 2 of 5, deuterium exchange time 0.05): 0.6%
- HDX difference, percentage (PK3CA_HUMAN peptide 688-693, time column 3 of 5, deuterium exchange time 0.5): -0.142%
- HDX difference, percentage (PK3CA_HUMAN peptide 688-693, time column 4 of 5, deuterium exchange time 5): -0.352%
- HDX difference, percentage (PK3CA_HUMAN peptide 688-693, time column 5 of 5): -0.379%
- HDX difference, percentage (PK3CA_HUMAN peptide 692-703, time column 1 of 5, deuterium exchange time 0.005): -0.563%
- HDX difference, percentage (PK3CA_HUMAN peptide 692-703, time column 2 of 5, deuterium exchange time 0.05): 0.65%
- HDX difference, percentage (PK3CA_HUMAN peptide 692-703, time column 3 of 5, deuterium exchange time 0.5): 0.8%
- HDX difference, percentage (PK3CA_HUMAN peptide 692-703, time column 4 of 5, deuterium exchange time 5): 0.4%
- HDX difference, percentage (PK3CA_HUMAN peptide 692-703, time column 5 of 5): 0.166%
- HDX difference, percentage (PK3CA_HUMAN peptide 704-709, time column 1 of 5, deuterium exchange time 0.005): 0.4%
- HDX difference, percentage (PK3CA_HUMAN peptide 704-709, time column 2 of 5, deuterium exchange time 0.05): 0.074%
- HDX difference, percentage (PK3CA_HUMAN peptide 704-709, time column 3 of 5, deuterium exchange time 0.5): -1.2%
- HDX difference, percentage (PK3CA_HUMAN peptide 704-709, time column 4 of 5, deuterium exchange time 5): -0.7%
- HDX difference, percentage (PK3CA_HUMAN peptide 704-709, time column 5 of 5): 0.531%
